Values of other authors as cited in patent US5668151A, “Dihydropyridine NPY antagonists: piperidine derivatives” (Bristol-Myers Squibb Company, priority 1996, dated 1997).

Assays:
[1] = tested on: NPY-induced Ca++ entry in HEL cells

Structure (SMILES)	pA2 [1]	effect on the vasoconstrictive activity of the NPY1 agonist [Leu31, Pro34]NPY (rat femoral artery)	effect on the NPY2 agonist NPY13-36 (rat femoral artery; Y2 receptor functional selectivity)
N=C(NCCCc1cnc[nH]1)NCCC(c1cc(F)cc(F)c1)c1ccccn1 (stereo not drawn) [He 90481]	4.43		
N=C(N)N(CCCCCCNCc1ccc2ccccc2c1)CCCCCCN(CCCCCCNCc1ccc2ccccc2c1)C(=N)N [Example 6b]		no effect	antagonized
